From patent US20150105252A1, “SUBSTITUTED PYRAZOLES AS HERBICIDES” (E I DU PONT DE NEMOURS AND COMPANY, priority 2013, published 2015)

Key:
[1] = test system: morningglory; test: Test A postemergence; type: in vivo, Ipomoea spp.; conditions: Postemergence
In short: (§1)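 Growth medium: loam soil blended with sand. Preemergence treatment used a directed soil spray right after planting; postemergence treatment targeted seedlings at one to two leaves (2–10 cm height). Response was judged by eye relative to untreated plants about 10 days later on a 0–100 control scale.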

[2] = test system: crabgrass, large; test: Test A postemergence; type: in vivo, Digitaria sanguinalis; conditions: Postemergence
In short: as §1

[3] = test system: velvetleaf; test: Test A preemergence; type: in vivo, Abutilon theophrasti; conditions: preemergence, 125 g ai/ha, visual injury approx. 10 days after treatment
In short: as §1

[4] = test system: crabgrass, large; test: Test A preemergence; type: in vivo, Digitaria sanguinalis; conditions: preemergence; for Crabgrass, Large plant response rating (0 to 100 scale): 125 g ai/ha, visual injury approx. 10 days after treatment; for Crabgrass, Large plant response rating: 500 g ai/ha, visual injury after approx. 10 days, 0 to 100 scale (0 no effect, 100 complete control)
In short: as §1

[5] = test system: ducksalad; test: Test B flood; type: in vivo, Heteranthera limosa; conditions: 250 g ai/ha, visual rating on 0 to 100 scale (0 no effect, 100 complete control), 13 to 15 days
In short: (§2)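 At two leaves, seedlings received the test compound via the paddy water, pots having been flooded 3 cm over the soil surface and kept so. Greenhouse-held for 13 to 15 days, then judged by eye against controls on a scale running 0 (no effect) to 100 (complete control).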

[6] = test system: rice; test: Test B flood; type: in vivo, Oryza sativa; conditions: 250 g ai/ha, visual rating on 0 to 100 scale (0 no effect, 100 complete control), 13 to 15 days
In short: as §2

[7] = test system: barnyardgrass; test: Test A postemergence; type: in vivo, Echinochloa crus-galli; conditions: Postemergence
In short: as §1

[8] = test system: sedge, umbrella; test: Test B flood; type: in vivo, Cyperus difformis; conditions: 250 g ai/ha, visual rating on 0 to 100 scale (0 no effect, 100 complete control), 13 to 15 days
In short: as §2

[9] = test system: velvetleaf; test: Test A postemergence; type: in vivo, Abutilon theophrasti; conditions: Postemergence
In short: as §1

[10] = test system: foxtail, giant; test: Test A preemergence; type: in vivo, Setaria faberii; conditions: preemergence; for Foxtail, Giant plant response rating (0 to 100 scale): 125 g ai/ha, visual injury approx. 10 days after treatment; for Foxtail, Giant plant response rating: 500 g ai/ha, visual injury after approx. 10 days, 0 to 100 scale (0 no effect, 100 complete control)
In short: as §1

[11] = test system: morningglory; test: Test A preemergence; type: in vivo, Ipomoea spp.; conditions: preemergence, 125 g ai/ha, visual injury approx. 10 days after treatment
In short: as §1

[12] = test system: barnyardgrass; test: Test A preemergence; type: in vivo, Echinochloa crus-galli; conditions: preemergence; for Barnyardgrass plant response rating (0 to 100 scale, 0 is no effect, 100 is complete control): 125 g ai/ha, visual injury approx. 10 days after treatment; for Barnyardgrass plant response rating: 500 g ai/ha, visual injury after approx. 10 days, 0 to 100 scale (0 no effect, 100 complete control)
In short: as §1

[13] = test system: corn; test: Test A postemergence; type: in vivo, Zea mays; conditions: Postemergence
In short: as §1

[14] = test system: pigweed; test: Test A preemergence; type: in vivo, Amaranthus retroflexus; conditions: preemergence, 125 g ai/ha, visual injury approx. 10 days after treatment
In short: as §1

[15] = test system: foxtail, giant; test: Test A postemergence; type: in vivo, Setaria faberii; conditions: Postemergence
In short: as §1

[16] = test system: wheat; test: Test A postemergence; type: in vivo, Triticum aestivum; conditions: Postemergence
In short: as §1

[17] = test system: wheat; test: Test A preemergence; type: in vivo, Triticum aestivum; conditions: preemergence, 125 g ai/ha, visual injury approx. 10 days after treatment
In short: as §1

[18] = test system: corn; test: Test A preemergence; type: in vivo, Zea mays; conditions: preemergence; for Corn plant response rating (0 to 100 scale): 125 g ai/ha, visual injury approx. 10 days after treatment; for Corn plant response rating: 500 g ai/ha, visual injury after approx. 10 days, 0 to 100 scale (0 no effect, 100 complete control)
In short: as §1

[19] = test system: barnyardgrass; test: Test B flood; type: in vivo, Echinochloa crus-galli; conditions: 250 g ai/ha, visual rating on 0 to 100 scale (0 no effect, 100 complete control), 13 to 15 days
In short: as §2

[20] = test system: pigweed; test: Test A postemergence; type: in vivo, Amaranthus retroflexus; conditions: Postemergence
In short: as §1

[21] = 125 g ai/ha, 0 to 100 scale, 0 no effect, 100 complete control
[22] = 500 g ai/ha, 0 to 100 scale (0 no effect, 100 complete control)

| Compound | Morningglory plant response rating [1, 21] | Morningglory plant response rating [1, 22] | Crabgrass, Large plant response rating [2, 21] | Crabgrass, Large plant response rating [2, 22] | Velvetleaf plant response rating (0 to 100 scale) [3] | Crabgrass, Large plant response rating (0 to 100 scale) [4] | Crabgrass, Large plant response rating [4] | Plant response rating, Ducksalad [5] | Plant response rating, Rice [6] | Barnyardgrass plant response rating [7, 21] | Barnyardgrass plant response rating [7, 22] | Plant response rating, Sedge, Umbrella [8] | Velvetleaf plant response rating [9, 21] | Velvetleaf plant response rating [9, 22] | Foxtail, Giant plant response rating (0 to 100 scale) [10] | Foxtail, Giant plant response rating [10] | Morningglory plant response rating (0 to 100 scale) [11] | Barnyardgrass plant response rating (0 to 100 scale, 0 is no effect, 100 is complete control) [12] | Barnyardgrass plant response rating [12] | Corn plant response rating [13, 21] | other results |
| --- | --- | --- | --- | --- | --- | --- | --- | --- | --- | --- | --- | --- | --- | --- | --- | --- | --- | --- | --- | --- | --- |
| CCc1cc(C(=O)NC2CC2)nn1Oc1cccc(C(F)(F)F)c1 [Compound 215] | 30 | 100 | 10 | 60 | 0 | 50 | 100 | 30 | 10 | 10 | 40 | 20 | 10 | 60 | 10 | 70 | 0 | 0 | 60 | 10 | Corn plant response rating [13, 22]: 20; Pigweed plant response rating (0 to 100 scale) [14]: 10; Foxtail, Giant plant response rating [15, 21]: 10; Foxtail, Giant plant response rating [15, 22]: 70; Wheat plant response rating [16, 21]: 0; Wheat plant response rating [16, 22]: 10; Wheat plant response rating (0 to 100 scale) [17]: 0; Corn plant response rating (0 to 100 scale) [18]: 0; Corn plant response rating [18]: 0; Plant response rating, Barnyardgrass [19]: 0; Pigweed plant response rating [20, 21]: 40; Pigweed plant response rating [20, 22]: 90 |
| CCc1cc(C(=O)NCC(F)(F)F)nn1Oc1cccc(OC(F)(F)F)c1 [Compound 221] | 30 | 80 | 10 | 30 | 0 | 10 | 90 | 0 | 0 | 10 | 10 | 0 | 0 | 20 | 0 | 40 | 0 | 0 | 10 | 10 | Corn plant response rating [13, 22]: 20; Pigweed plant response rating (0 to 100 scale) [14]: 0; Foxtail, Giant plant response rating [15, 21]: 10; Foxtail, Giant plant response rating [15, 22]: 30; Wheat plant response rating [16, 21]: 0; Wheat plant response rating [16, 22]: 10; Wheat plant response rating (0 to 100 scale) [17]: 0; Corn plant response rating (0 to 100 scale) [18]: 0; Corn plant response rating [18]: 0; Plant response rating, Barnyardgrass [19]: 0; Pigweed plant response rating [20, 21]: 20; Pigweed plant response rating [20, 22]: 60 |
